Measured values: EPA's ToxValDB 9.5 (doi:10.2903/j.efsa.2015.4302)

Key:
[1] = system: Colinus virginianus; conditions: for LC50 / LD50: acute, oral, mortality; for LC50: diet
[2] = system: Anas platyrhynchos; conditions: reproductive
[3] = system: Rattus norvegicus
[4] = system: Anabaena flosaquae; conditions: acute; duration: 72 hours
[5] = system: Danio rerio; conditions: short-term; duration: 168 hours; growth
[6] = system: Tagia sp.; conditions: acute; duration: 14 days; mortality
[7] = system: Apis mellifera; conditions: acute, mortality
[8] = system: Oryctolagus sp.; conditions: repeat dose other; mortality
[9] = system: Pimephales promelas; conditions: chronic/long-term; duration: 255 days; growth
[10] = system: Oncorhynchus mykiss; conditions: chronic/long-term; duration: 85 days; growth
[11] = system: Daphnia magna; conditions: chronic/long-term; duration: 21 days; reproduction
[12] = system: Skeletonema costatum; conditions: acute; duration: 72 hours; growth

Row | Compound | LC50 [1] | LD50 [1] | NOEL [2] | LD50 ([3]; acute, mortality) | NOAEL ([3]; chronic) | NOEC [4] | NOEC [5] | LC50 [6] | NOEL ([1]; reproduction developmental) | LD50 ([7]; dermal) | LD50 ([7]; oral, unspecified) | NOAEL [8] | NOEC [9] | NOEC [10] | NOEC [11] | NOEC [12]
1 | NCP(=O)(O)O [Aminomethylphosphonic acid] | > 5620 mg/kg-day | > 2250 mg/kg-day | – | – | – | – | – | – | – | – | – | – | – | – | – | –
2 | O=C(O)CNCP(=O)(O)O [Glyphosate] | > 5200 mg/kg-day | 4330 mg/kg-day | 125 mg/kg-day | > 2000 mg/kg-day | 197 mg/kg-day | 12 mg/L | 1 mg/L | 5600 mg/kg | 96.3 mg/kg-day | > 100 µg/piece | 100 µg/piece | 50 mg/kg-day | 25.7 mg/L | 9.6 mg/L | 12.5 mg/L | 1.82 mg/L
